Laboratory results as given in BindingDB's records for doi:10.1046/j.1471-4159.1997.69051810.x (Janssen Research Foundation, 1997).

Assays:
[1] = target: 5-hydroxytryptamine receptor 4 (Cavia porcellus, UniProt O70528)
[2] = target: 5-hydroxytryptamine receptor 4 (Homo sapiens, UniProt Q13639)
5-hydroxytryptamine receptor 4 (Homo sapiens, UniProt Q13639), sequence (Q13639 whole entry): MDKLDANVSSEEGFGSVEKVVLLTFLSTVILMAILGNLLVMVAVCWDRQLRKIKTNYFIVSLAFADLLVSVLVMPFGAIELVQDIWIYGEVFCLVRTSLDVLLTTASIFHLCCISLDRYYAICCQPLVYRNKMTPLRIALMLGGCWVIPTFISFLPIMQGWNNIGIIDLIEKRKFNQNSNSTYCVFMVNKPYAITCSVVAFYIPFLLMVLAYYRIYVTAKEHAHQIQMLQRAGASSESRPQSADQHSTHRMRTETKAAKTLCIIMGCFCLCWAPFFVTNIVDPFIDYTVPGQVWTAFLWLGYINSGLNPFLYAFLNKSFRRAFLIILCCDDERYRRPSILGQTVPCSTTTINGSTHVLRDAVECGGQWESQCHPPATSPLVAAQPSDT

5-hydroxytryptamine receptor 4 (Cavia porcellus, UniProt O70528), sequence (O70528 whole entry): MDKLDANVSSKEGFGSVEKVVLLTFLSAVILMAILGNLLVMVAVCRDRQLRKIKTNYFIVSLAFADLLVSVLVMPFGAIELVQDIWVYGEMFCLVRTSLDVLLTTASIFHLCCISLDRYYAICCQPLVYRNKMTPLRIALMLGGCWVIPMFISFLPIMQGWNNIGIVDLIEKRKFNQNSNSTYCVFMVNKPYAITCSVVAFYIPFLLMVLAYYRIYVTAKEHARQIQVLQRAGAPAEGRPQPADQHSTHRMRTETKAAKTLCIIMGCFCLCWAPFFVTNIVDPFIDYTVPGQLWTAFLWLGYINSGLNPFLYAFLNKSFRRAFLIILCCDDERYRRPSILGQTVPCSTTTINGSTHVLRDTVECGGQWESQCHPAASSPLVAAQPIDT

Structure (SMILES) | Ki [1] [nM] | Ki [2] [nM]
CN1C2CCC1CC(OC(=O)c1c[nH]c3ccccc13)C2 (centres undefined) | 200 | –
CCCCN1CCC(COC(=O)c2cc(Cl)c(N)c3c2OCCO3)CC1 [CAS_121881] | 0.07 | 0.1
Cn1cc(C(=O)OCC2CCN(CCNS(C)(=O)=O)CC2)c2ccccc21 [GR 113808] | 0.39 | 0.25
COc1[nH]c2ccc(F)cc2c1C(=O)OCC1CCN(CCNS(C)(=O)=O)CC1 [GR-125487] | 0.19 | 0.15
COc1ccc2[nH]cc(CCN)c2c1 [tryptamine, 5-Methoxy] | 251 | 1000
